Holding throughout (assay type): functional
Experiment [1] has as its system MCF7. Description: Growth inhibition of Homo sapiens (human) MCF-7 cells after 48 hr by SRB assay. The conditions noted are these: MCF7, 48 h. (The SRB assay estimates cell density from bound dye.)
Experiment [2] has as its system MCF7. Description: Growth inhibition of Homo sapiens (human) MCF-7 cells assessed as cell growth at 10 '-4 M after 48 hr by SRB assay. The following applies: MCF7, 48 h, read-out: Activity.
For experiment [3], the system named is MCF7. Description: Growth inhibition of Homo sapiens (human) MCF-7 cells assessed as cell growth at 10 '-5 M after 48 hr by SRB assay. The conditions noted are these: MCF7, 48 h, read-out: Activity.
For experiment [4], the system named is MCF7. Description: Growth inhibition of Homo sapiens (human) MCF-7 cells assessed as cell growth at 10 '-6 M after 48 hr by SRB assay. The conditions noted are these: MCF7, 48 h, read-out: Activity.
Experiment [5] concerns MCF7. Description: Growth inhibition of Homo sapiens (human) MCF-7 cells assessed as cell growth at 10 '-7 M after 48 hr by SRB assay. The conditions noted are these: MCF7, 48 h, read-out: Activity.
The subject of experiment [6] is MCF7. Kind of experiment: Cytotoxicity against Homo sapiens (human) MCF-7 cells after 48 hr by SRB assay. The conditions noted are these: MCF7, 48 h.
For experiment [7], the system named is MCF7. Kind of experiment: Growth inhibition of Homo sapiens (human) MCF-7 cells assessed as total cell growth after 48 hr by SRB assay.

Molecules are shown by their SMILES.

What is called GI50 is the concentration at which growth is held to half of that of the control. A higher GI50 goes with less potent growth inhibition. By TGI is commonly meant the concentration at which net growth stops. Consider `O=C1CC(c2cccc(O)c2)Nc2c(Br)cc(Br)cc21` (stereo unspecified), for which the GI50 in the experiment with MCF7 [1] was above 100000 nM. Also, in the experiment on MCF7 [2], the growth at 100 µM stood at 14.7%. Moreover, the growth at 10 µM in the experiment on MCF7 [3] is 25.6%. Also, the growth at 1 µM with MCF7 [4] amounted to 108%. In the experiment on MCF7 [5], the growth at 0.1 µM was determined as 118%. Also, the LC50 (concentration killing 50% of cells) in the experiment on MCF7 [6] is above 100000 nM. In addition, in the experiment with MCF7 [7], the concentration for total growth inhibition (TGI) was above 100000 nM.

As for `O=C1CC(c2ccc(F)cc2)Nc2c(Br)cc(Br)cc21` (stereo unspecified), the GI50 in the experiment with MCF7 [1] is below 100 nM. Besides, in the experiment with MCF7 [2], the growth at 100 µM was -48.1%. In addition, the growth at 10 µM with MCF7 [3] is -3.6%. The growth at 1 µM in the experiment with MCF7 [4] stood at 9.2%. In addition, in the experiment with MCF7 [5], the growth at 0.1 µM is 30.1%. For the same compound, in the experiment on MCF7 [6], the LC50 (concentration killing 50% of cells) is above 100000 nM. Moreover, the TGI in the experiment with MCF7 [7] was found to be 145 nM.

In the experiment on MCF7 [1], `O=C1CC(c2ccc([N+](=O)[O-])cc2)Nc2c(Br)cc(Br)cc21` (stereo unspecified) displayed a GI50 below 100 nM. In addition, the growth at 100 µM in the experiment on MCF7 [2] is -52.3%. Moreover, the growth at 10 µM in the experiment on MCF7 [3] is -4.4%. Further, the growth at 1 µM with MCF7 [4] was found to be 8.6%. Besides, the growth at 0.1 µM in the experiment with MCF7 [5] came to 50.5%. Besides, in the experiment on MCF7 [6], the LC50 (concentration killing 50% of cells) is above 100000 nM. In addition, in the experiment on MCF7 [7], the TGI was 132 nM.

In the case of `COc1ccc(C2CC(=O)c3cc(Br)cc(Br)c3N2)cc1` (stereo unspecified), the GI50 with MCF7 [1] is above 100000 nM. Besides, the growth at 100 µM in the experiment on MCF7 [2] was 7.1%. In the experiment with MCF7 [3], the growth at 10 µM is 87.8%. Further, in the experiment with MCF7 [4], the growth at 1 µM turned out to be 140%. For the same compound, the growth at 0.1 µM with MCF7 [5] turned out to be 168%. The LC50 (concentration killing 50% of cells) with MCF7 [6] is above 100000 nM. Also, the TGI with MCF7 [7] was above 100000 nM.

With `COc1cccc2c1C(=O)c1c(O)c3c(c(O)c1C2=O)C[C@@](O)(C(=O)CO)C[C@@H]3O[C@H]1C[C@H](N)[C@H](O)[C@H](C)O1.Cl` [DOXORUBICIN HYDROCHLORIDE], the GI50 with MCF7 [1] is below 100 nM. In addition, in the experiment on MCF7 [2], the growth at 100 µM is -33.5%. Further, in the experiment with MCF7 [3], the growth at 10 µM is -23.7%. Further, in the experiment with MCF7 [4], the growth at 1 µM is -13.9%. The growth at 0.1 µM in the experiment on MCF7 [5] is 53.5%. In the experiment on MCF7 [7], the TGI turned out to be 183 nM.

`O=C1CC(c2ccc(O)cc2)Nc2c(Br)cc(Br)cc21` (stereo unspecified): the 50% growth inhibitory concentration (GI50) with MCF7 [1] was below 100 nM. Further, in the experiment with MCF7 [2], the growth at 100 µM was -45.3%. In the experiment with MCF7 [3], the growth at 10 µM was -2%. In the experiment on MCF7 [4], the growth at 1 µM came to 9.6%. Further, the growth at 0.1 µM with MCF7 [5] came to 3.7%. In the experiment with MCF7 [6], this compound came in with an LC50 (concentration killing 50% of cells) above 100000 nM. Moreover, in the experiment on MCF7 [7], the TGI was determined as 151 nM.

Turning to `N#Cc1ccc(C2CC(=O)c3cc(Br)cc(Br)c3N2)cc1` (stereo unspecified), the GI50 with MCF7 [1] is below 100 nM. The growth at 100 µM in the experiment with MCF7 [2] was -58.5%. Moreover, in the experiment on MCF7 [3], the growth at 10 µM is -5.1%. Also, in the experiment on MCF7 [4], the growth at 1 µM came out at 8.2%. The growth at 0.1 µM with MCF7 [5] stood at 43.1%. Moreover, the LC50 (concentration killing 50% of cells) in the experiment on MCF7 [6] is above 100000 nM. Also, the TGI with MCF7 [7] was found to be 126 nM.

As to `CN(C)c1ccc(C2CC(=O)c3cc(Br)cc(Br)c3N2)cc1` (stereo unspecified), the GI50 in the experiment with MCF7 [1] is above 100000 nM. In the experiment on MCF7 [2], the growth at 100 µM was found to be 43%. In addition, the growth at 10 µM in the experiment on MCF7 [3] was 130%. For the same compound, the growth at 1 µM with MCF7 [4] was 144%. Further, the growth at 0.1 µM with MCF7 [5] was 164%. The LC50 (concentration killing 50% of cells) in the experiment with MCF7 [6] is above 100000 nM. Further, in the experiment with MCF7 [7], the concentration for total growth inhibition (TGI) is above 100000 nM.

`COc1cc(C2CC(=O)c3cc(Br)cc(Br)c3N2)cc(OC)c1OC` (stereo unspecified) showed a GI50 with MCF7 [1] above 100000 nM. Further, the growth at 100 µM in the experiment with MCF7 [2] is 34.3%. Also, the growth at 10 µM in the experiment on MCF7 [3] was 99.6%. Further, the growth at 1 µM in the experiment with MCF7 [4] came to 110%. Further, the growth at 0.1 µM with MCF7 [5] stood at 130%. The LC50 (concentration killing 50% of cells) with MCF7 [6] was above 100000 nM. The TGI in the experiment on MCF7 [7] was above 100000 nM.

For the compound `O=C1CC(c2ccc(Br)cc2)Nc2c(Br)cc(Br)cc21` (stereo unspecified), in the experiment on MCF7 [1], growth was halved (GI50) at 151 nM. Further, in the experiment with MCF7 [2], the growth at 100 µM is -43%. Further, the growth at 10 µM in the experiment with MCF7 [3] is 12.5%. Further, in the experiment with MCF7 [4], the growth at 1 µM was determined as 69.7%. Also, the growth at 0.1 µM in the experiment with MCF7 [5] was determined as 69.7%. Also, the LC50 (concentration killing 50% of cells) with MCF7 [6] was above 100000 nM. Also, the TGI with MCF7 [7] came out at 2600 nM.

For `O=C1CC(c2ccc(Cl)cc2)Nc2c(Br)cc(Br)cc21` (stereo unspecified), halving of growth with MCF7 [1] (GI50) required 146 nM. The growth at 100 µM in the experiment with MCF7 [2] is -40%. Further, the growth at 10 µM in the experiment on MCF7 [3] turned out to be 34.5%. Moreover, the growth at 1 µM in the experiment with MCF7 [4] stood at 61.7%. Moreover, the growth at 0.1 µM in the experiment with MCF7 [5] stood at 60.2%. Besides, the LC50 (concentration killing 50% of cells) in the experiment with MCF7 [6] was above 100000 nM. In addition, the TGI with MCF7 [7] came to 2870 nM.

The values are drawn from ChEMBL document CHEMBL3044958, “Synthesis, evaluation of 6,8-dibromo-2-aryl-2,3-dihydroquinolin-4(1H)-ones in MCF-7 (breast cancer) cell lines and their docking studies” (2012).
